Experimental data as given in patent publication US7901893B2, “NPC1L1 (NPC3) and methods of identifying ligands thereof” (Merck Sharp & Dohme Corp., priority 2004, dated 2011).

Assays:
mouse SR-B1 = target: T1, mouse SR-B1 (Mus musculus, UniProt Q61009); assay: Effect of ezetimibe on cholesterol uptake, SR-B1 transfected CHO cells; format: cell-based; settings: EZ (10 μM), SR-BI
T1 construct: expressed in transfected cells
T1 sequence (Q61009 1-509): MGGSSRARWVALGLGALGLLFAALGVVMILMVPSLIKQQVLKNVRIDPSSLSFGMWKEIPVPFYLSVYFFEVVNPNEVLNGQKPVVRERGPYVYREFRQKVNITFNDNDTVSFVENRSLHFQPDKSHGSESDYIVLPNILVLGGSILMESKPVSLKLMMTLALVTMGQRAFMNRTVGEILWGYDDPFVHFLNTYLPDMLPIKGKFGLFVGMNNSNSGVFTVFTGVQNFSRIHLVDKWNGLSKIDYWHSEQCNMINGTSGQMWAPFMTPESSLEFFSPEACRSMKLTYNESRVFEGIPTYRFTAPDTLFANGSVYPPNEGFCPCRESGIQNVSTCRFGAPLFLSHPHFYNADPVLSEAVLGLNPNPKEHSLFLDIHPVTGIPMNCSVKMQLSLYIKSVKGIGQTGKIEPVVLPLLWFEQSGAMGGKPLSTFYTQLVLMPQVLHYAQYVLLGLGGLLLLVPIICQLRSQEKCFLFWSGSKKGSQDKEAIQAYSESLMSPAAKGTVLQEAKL
Procedure: The effect of ezetimibe on the ability of CHO cells stably transfected with mouse or rat NPC1L1 or mouse SR-B1 to take up ^3H-labeled cholesterol was evaluated in pulse-chase experiments. One cDNA clone of mouse NPC1L1 (C7) and three clones of rat NPC1L1 (C7, C17 and C21) were evaluated. The ability of CHO cells stably transfected with mouse SR-B1, mouse NPC1L1 and rat NPC1L1 to take up labeled cholesterol, in the absence of ezetimibe, was also evaluated in the pulse-chase experiments. Data generated in these experiments are set forth, below, in Tables 4 and 5. Additionally, the quantity of total cholesterol taken up by transfected and untransfected CHO cells in the presence of four different unlabeled cholesterol concentrations was also evaluated.
Starve. The maintenance media (F12 HAMS, 1% Pen/Strep, 10% FCS) was removed and the cells were rinsed with serum-free HAMS media. The serum-free media was then replaced with 1 mL “starve” media (F12 HAMS, Pen/Strep, 5% lipoprotein deficient serum (LPDS). The cells were then starved overnight.
Pre-Incubation/pre-dose. Media was removed from all plates and replaced with fresh starve media and preincubated for 30 minutes. Half of the wells received media containing ezetimibe (stock soln in EtOH; final conc.=10 μM).
^3H-Cholesterol Pulse. The following was added directly to each well: • 0.5 μCi ^3H-cholesterol (˜1.1×10^6 dpm/well) in 50 μl of a mixed bile salt micelle • 4.8 mM sodium taurocholate (2.581 mg/mL) • 0.6 mM sodium oleate (0.183 mg/mL) • 0.25 mM cholesterol (0.1 mg/mL) • Dispersed in “starve” media by ultrasonic vibration • Final media cholesterol concentration=5 μg/mL
Labeled cholesterol pulse time points were 4, 12, 24 minutes and 4 hours. Triplicate wells were prepared for each treatment.
Wash. At designated times, media was aspirated and cells were washed once with Hobbs Buffer A (50 mM Tris, 0.9% NaCl, 0.2% bovine serum albumin (BSA), pH 7.4) and once with Hobbs Buffer B (50 mM Tris, 0.9% NaCl, pH 7.4 (no BSA)) at 37° C.
A. 4, 12, 24 minute time points: Cells were digested overnight with 0.2N NaOH, 2 mL/well, room temperature. One 1.5 mL aliquot was removed from each well, neutralized & counted for radioactivity by scintillation counting.
B. 4 hour time point: The digested cells were analyzed by thin-layer chromatography to determine the content of cholesterol ester in the cells.
Extracts were spotted onto TLC plates and run for 30 minutes in 2 ml hexane:isopropanol (3:2) mobile phase for 30 minutes, followed by a second run in 1 ml hexane:isopropanol (3:2) mobile phase for 15 minutes.
C. Protein determination of cell extracts. Plates containing a sample of the cell extracts were placed on orbital shaker at 120 rpm for indicated times and then extracts are pooled into 12×75 tubes. Plates were dried and NaOH (2 ml/well) added. The protein content of the samples were then determined. Two additional 50 μl aliquots from all wells were assayed for total protein by the Pierce micro BCA method. The quantity of labeled cholesterol observed in the cells was normalized to the quantity of protein in the cells.

[1] = target: T2, CHO cells expressing SR-B1 (Mus musculus, UniProt Q61009); assay: Cholesterol uptake assay (Example 4); format: cell-based; settings: 10 μM ezetimibe
T2 construct: expressed in transfected cells; host or cells: CHO cells
T2 sequence (Q61009 1-509): T1 sequence (Q61009 1-509)
Procedure: CHO cells expressing either SR-B1 or three different clones of rat NPC1L1 or one clone of mouse NPC1L1 were starved overnight in cholesterol free media then dosed with [3H]-cholesterol in a mixed synthetic micelle emulsion for 4 min, 8 min, 12 min or 24 m in the absence or presence of 10 µM ezetimibe. The cells were harvested and the lipids were organically extracted. The extracted lipids were spotted on thin-layer chromatography (TLC) plates and resolved within an organic vapor phase. The free cholesterol bands for each assay were isolated and counted in a scintillation counter.

Cholesteryl Ester, dpm ± sem (mouse SR-B1; 4 Hour Pulse): 9305 ± 401 dpm | Cholesteryl Ester, dpm/mg protein ± sem (mouse SR-B1; 4 Hour Pulse): 72782 ± 3181 dpm/mg protein | Free Cholesterol, dpm ± sem (mouse SR-B1; 4 Hour Pulse): 194519 ± 474 dpm | Free Cholesterol, dpm/mg protein ± sem (mouse SR-B1; 4 Hour Pulse): 1521341 ± 4185 dpm/mg protein | Total Cholesterol, dpm ± sem (mouse SR-B1; 4 Min Pulse): 10968 ± 821 dpm | Total Cholesterol, dpm/mg protein ± sem (mouse SR-B1; 4 Min Pulse): 92474 ± 2902 dpm/mg protein | Total Cholesterol, dpm ± sem (mouse SR-B1; 12 Min Pulse): 12349 ± 298 dpm | Total Cholesterol, dpm/mg protein ± sem (mouse SR-B1; 12 Min Pulse): 98956 ± 4447 dpm/mg protein | Total Cholesterol, dpm ± sem (mouse SR-B1; 24 Min Pulse): 23558 ± 1310 dpm | Total Cholesterol, dpm/mg protein ± sem (mouse SR-B1; 24 Min Pulse): 198725 ± 11713 dpm/mg protein | [^3H]-cholesterol uptake [1]: inhibited
SMILES: O=C1[C@H](CC[C@H](O)c2ccc(F)cc2)[C@@H](c2ccc(O)cc2)N1c1ccc(F)cc1 [ezetimibe]
